Measurements: PubChem BioAssay (NCI)
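Values below derive from 48-hour exposures of cells grown in 96-well plates, with endpoints linearly interpolated between the two concentrations bracketing the appropriate inhibition level. Here, GI50 denotes the concentration required for 50% inhibition of growth. TGI is the concentration that stops growth completely.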

How the values were obtained:
Assay in all cases: DTP human tumour cell line panel, 48 h
OVCAR-3 ovarian = test system: OVCAR-3 ovarian
HCT-15 colon = test system: HCT-15 colon
NCI-H522 lung = test system: NCI-H522 lung
KM12 colon = test system: KM12 colon
786-0 renal = test system: 786-0 renal
TK-10 renal = test system: TK-10 renal
SNB-19 CNS = test system: SNB-19 CNS
NCI-H23 lung = test system: NCI-H23 lung
MOLT-4 leukemia = test system: MOLT-4 leukemia
SF-268 CNS = test system: SF-268 CNS
HL-60(TB) leukemia = test system: HL-60(TB) leukemia
PC-3 prostate = test system: PC-3 prostate
HCC-2998 colon = test system: HCC-2998 colon
CCRF-CEM leukemia = test system: CCRF-CEM leukemia
NCI-H460 lung = test system: NCI-H460 lung
UACC-257 melanoma = test system: UACC-257 melanoma
SK-MEL-5 melanoma = test system: SK-MEL-5 melanoma
HOP-92 NSCLC = test system: HOP-92 NSCLC
HCT-116 colon = test system: HCT-116 colon
SF-295 CNS = test system: SF-295 CNS
LOX IMVI melanoma = test system: LOX IMVI melanoma
T-47D breast = test system: T-47D breast
MCF7 breast = test system: MCF7 breast
HT29 colon = test system: HT29 colon
M14 melanoma = test system: M14 melanoma
IGROV1 ovarian = test system: IGROV1 ovarian
UO-31 renal = test system: UO-31 renal
UACC-62 melanoma = test system: UACC-62 melanoma
HS 578T breast = test system: HS 578T breast
HOP-62 NSCLC = test system: HOP-62 NSCLC
SW-620 colon = test system: SW-620 colon
SNB-75 CNS = test system: SNB-75 CNS
MDA-MB-231 breast = test system: MDA-MB-231 breast
SK-OV-3 ovarian = test system: SK-OV-3 ovarian
SK-MEL-2 melanoma = test system: SK-MEL-2 melanoma
SN12C renal = test system: SN12C renal
ACHN renal = test system: ACHN renal
A498 renal = test system: A498 renal
A549 NSCLC = test system: A549 NSCLC
DU-145 prostate = test system: DU-145 prostate
MDA-MB-435 = test system: MDA-MB-435
U251 CNS = test system: U251 CNS
COLO 205 colon = test system: COLO 205 colon
RPMI-8226 leukemia = test system: RPMI-8226 leukemia
SR leukemia = test system: SR leukemia
BT-549 breast = test system: BT-549 breast
NCI/ADR-RES ovarian = test system: NCI/ADR-RES ovarian

C=C1C(=O)O[C@H]2[C@H]1CC/C(COC(=O)CCCC(=O)OC/C1=C/CC[C@@]3(C)O[C@H]3[C@H]3OC(=O)C(=C)[C@@H]3CC1)=C\CC[C@@]1(C)O[C@@H]21
GI50 (OVCAR-3 ovarian): 401 nM | TGI (OVCAR-3 ovarian): 1520 nM | GI50 (HCT-15 colon): 814 nM | TGI (HCT-15 colon): 2350 nM | GI50 (NCI-H522 lung): 678 nM | TGI (NCI-H522 lung): 2340 nM | GI50 (KM12 colon): 2240 nM | TGI (KM12 colon): 6850 nM | GI50 (786-0 renal): 1350 nM | TGI (786-0 renal): 2790 nM | GI50 (TK-10 renal): 1530 nM | TGI (TK-10 renal): 3040 nM | GI50 (SNB-19 CNS): 2910 nM | TGI (SNB-19 CNS): 14400 nM | GI50 (NCI-H23 lung): 2280 nM | TGI (NCI-H23 lung): 6670 nM | GI50 (MOLT-4 leukemia): 396 nM | TGI (MOLT-4 leukemia): 2070 nM | GI50 (SF-268 CNS): 2770 nM | TGI (SF-268 CNS): 15100 nM | GI50 (HL-60(TB) leukemia): 274 nM | TGI (HL-60(TB) leukemia): 1390 nM | GI50 (PC-3 prostate): 2860 nM | TGI (PC-3 prostate): 8370 nM | GI50 (HCC-2998 colon): 2070 nM | TGI (HCC-2998 colon): 4220 nM | GI50 (CCRF-CEM leukemia): 281 nM | TGI (CCRF-CEM leukemia): 757 nM | GI50 (NCI-H460 lung): 3180 nM | TGI (NCI-H460 lung): 12700 nM | GI50 (UACC-257 melanoma): 2000 nM | TGI (UACC-257 melanoma): 4970 nM | GI50 (SK-MEL-5 melanoma): 2250 nM | TGI (SK-MEL-5 melanoma): 5680 nM | GI50 (HOP-92 NSCLC): 1870 nM | TGI (HOP-92 NSCLC): 3650 nM | GI50 (HCT-116 colon): 1290 nM | TGI (HCT-116 colon): 2570 nM | GI50 (SF-295 CNS): 4710 nM | TGI (SF-295 CNS): > 100000 nM | GI50 (LOX IMVI melanoma): 1040 nM | TGI (LOX IMVI melanoma): 2310 nM | GI50 (T-47D breast): 1190 nM | TGI (T-47D breast): 3810 nM | GI50 (MCF7 breast): 500 nM | TGI (MCF7 breast): 2430 nM | GI50 (HT29 colon): 752 nM | TGI (HT29 colon): 2160 nM | GI50 (M14 melanoma): 1720 nM | TGI (M14 melanoma): 4510 nM | GI50 (IGROV1 ovarian): 1660 nM | TGI (IGROV1 ovarian): 4540 nM | GI50 (UO-31 renal): 1110 nM | TGI (UO-31 renal): 2310 nM | GI50 (UACC-62 melanoma): 1540 nM | TGI (UACC-62 melanoma): 4530 nM | GI50 (HS 578T breast): 3420 nM | TGI (HS 578T breast): > 100000 nM | GI50 (HOP-62 NSCLC): 3310 nM | TGI (HOP-62 NSCLC): 16000 nM | GI50 (SW-620 colon): 608 nM | TGI (SW-620 colon): 2040 nM | GI50 (SNB-75 CNS): 2840 nM | TGI (SNB-75 CNS): > 100000 nM | GI50 (MDA-MB-231 breast): 1390 nM | TGI (MDA-MB-231 breast): 2900 nM | GI50 (SK-OV-3 ovarian): 9890 nM | TGI (SK-OV-3 ovarian): > 100000 nM | GI50 (SK-MEL-2 melanoma): 2180 nM | TGI (SK-MEL-2 melanoma): 6500 nM | GI50 (SN12C renal): 2300 nM | TGI (SN12C renal): 6920 nM | GI50 (ACHN renal): 764 nM | TGI (ACHN renal): 2030 nM | GI50 (A498 renal): 5580 nM | TGI (A498 renal): 19000 nM | GI50 (A549 NSCLC): 4460 nM | TGI (A549 NSCLC): 41700 nM | GI50 (DU-145 prostate): 1450 nM | TGI (DU-145 prostate): 2770 nM | GI50 (MDA-MB-435): 1690 nM | TGI (MDA-MB-435): 5180 nM | GI50 (U251 CNS): 2920 nM | TGI (U251 CNS): 10300 nM | GI50 (COLO 205 colon): 592 nM | TGI (COLO 205 colon): 2150 nM | GI50 (RPMI-8226 leukemia): 362 nM | TGI (RPMI-8226 leukemia): 1500 nM | GI50 (SR leukemia): 501 nM | TGI (SR leukemia): 3450 nM | GI50 (BT-549 breast): 1370 nM | TGI (BT-549 breast): 2950 nM | GI50 (NCI/ADR-RES ovarian): 4630 nM | TGI (NCI/ADR-RES ovarian): > 100000 nM
